Calls of active or inactive are those of the source.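 The calls were made as follows: active = inhibition above 50% of lysosomal marker LAMP-1 reaching the cell surface; inactive = inhibition below 50%.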
Tested on: TALL-104 cells, LAMP-1 externalization, flow cytometry
Assay: inhibitors of lytic granule exocytosis via LAMP-1, confirmation, TALL-104 cells, flow cytometry, CherryPick01 (AID 720663)
Conditions: at 30 µM; active compounds read high

SMILES	inhibition
CC1=NOC(=O)/C1=C/c1ccc(-c2ccc(Cl)cc2)o1	84.6%
O=c1c2ccccc2sn1-c1ccccc1	79.9%
CC(=O)Nc1ccc2sn(-c3ccccc3)c(=O)c2c1	26.4% (inactive)
O=C(Cn1sc2ccccc2c1=O)NC12CC3CC(CC(C3)C1)C2	50% (inactive)
Cc1cc(C)c2nc(C)cc(N/N=C/c3ccc(O)cc3)c2c1	100%
O=CNc1cc(-c2ccsc2)cn2c(-c3ccccc3)cnc12	52.6%
Fc1ccc(/C=C\c2nccc3c2[nH]c2ccccc23)cc1	98.7%
Nc1c(C(=O)NCc2ccc(F)cc2)c2nc3ccccc3nc2n1CCCN1CCOCC1	58.3%
CC1COCC(C)N1C1=C(Cl)C(=O)c2ccccc2C1=O (stereo not given)	99.7%
CC(C)CNC(=O)c1c(N)n(Cc2ccc3c(c2)OCO3)c2nc3ccccc3nc12	21% (inactive)
Cc1ccc(S(=O)(=O)n2ccc3c(OCCOCCNCc4ccc(F)cc4)cccc32)cc1	85%
CCCS(=O)(=O)Nc1ccc(Nc2c3ccccc3nc3ccccc23)c(OC)c1	99.7%
Cn1cncc1C#Cc1c(-c2ccc(S(C)(=O)=O)cc2)sc2ccccc12	17% (inactive)
CCCCCCSc1cccc(-c2nc3ccccn3c2NCc2ccccc2)c1	-0.5% (inactive)
c1ccc(CNc2nc(NCC3CC3)nc3cc(-c4ccccc4)sc23)cc1	97.8%
O=C(CN1C(=O)/C(=C\c2cccc(Br)c2)Oc2ccccc21)NCCCN1CCOCC1	77%
CCOC(=O)c1cc(-c2csc(Nc3c(C)cc(C)cc3C)n2)on1	70.1%
CC1(C(=O)OCC(=O)Nc2nc(-c3ccc(F)c(F)c3)cs2)CC1(Cl)Cl (stereo not given)	-10.8% (inactive)
CCOc1ccc2nc(C)cc(Nc3cccc([N+](=O)[O-])c3)c2c1	100%
CN(C)CCCNC(=S)NCC(c1ccc(Cl)cc1Cl)c1c[nH]c2ccccc12 (stereo not given)	24% (inactive)
COc1ccc(N2C(=O)CC(Sc3nnc(-c4ccccc4)o3)C2=O)cc1 (stereo not given)	92.9%
OC(CNCC(c1ccc(Cl)cc1Cl)c1c[nH]c2ccccc12)c1ccccc1 (stereo not given)	35.2% (inactive)
CCc1nc2ccc(C(=O)NC3CCN(Cc4ccccc4)CC3)cn2c1N(C)Cc1cc2ccccc2s1	22.5% (inactive)
COc1cc(-c2coc3c(C(=O)NCc4ccc(OC)c(OC)c4)cccc23)ccc1O	29.4% (inactive)
CCN(CC)CCCNc1ccc(-c2nnc(-c3ccc(OCC(C)C)cc3)o2)cn1	87.3%

SMILES	inhibition
O=c1c2ccccc2sn1-c1ccccc1F	44% (inactive)
COc1cccc(-c2cnc3c(NC(C)=O)cc(-c4ccsc4)cn23)c1	53.2%
O=S(=O)(c1ccccc1)c1nnn2c1nc(NC1CCN(Cc3ccccc3)CC1)c1cc(Cl)ccc12	98.7%
N#Cc1c(Nc2ccccc2Cl)s[nH]c1=O	95.1%
CCOc1cc(CNCCc2ccc(S(N)(=O)=O)cc2)ccc1OCc1ccc(Cl)cc1	99.8%
CN1CCN(c2cc(-c3ccccc3)nc3cc(-c4ccc(F)cc4)nn23)CC1	99.7%
COc1ccc(-n2sc3ccccc3c2=O)cc1	60.1%
COc1cccc(-c2cnc3c(NC(C)=O)cc(-c4ccccc4OC)cn23)c1	56.1%
COc1ccc(-c2cc(NC=O)c3ncc(-c4ccccc4)n3c2)cc1OC	69.9%
Cc1ccc(Nc2nc(NCc3ccco3)c3ccccc3n2)cc1	58.7%
COc1cccc(-c2cnc3c(NC=O)cc(-c4ccccc4)cn23)c1	38.8% (inactive)
CCOC(=O)c1c(NC(=O)COc2ccccc2OCC)sc2c1CC(C)(C)NC2(C)C	94.7%
CCOC(=O)c1c(CSc2ccccc2)n(C)c2cc(Br)c(O)c(CN(C)C)c12	25.5% (inactive)
CN1CCN(CCCNC(=O)c2ccc(/C=C3\Sc4ccccc4N(Cc4ccc(F)cc4)C3=O)cc2)CC1	4.5% (inactive)
CCC(=C(c1ccc(OC)cc1)c1ccc(OC)cc1)c1cn(CC(O)CN2CCN(C)CC2)c2ccccc12 (stereo not given)	14.8% (inactive)
CN(c1ccccc1)S(=O)(=O)c1cccc(C(=O)NCCc2c[nH]c3ccccc23)c1	13.7% (inactive)
O=C1CC(Sc2nnnn2-c2ccccc2)C(=O)N1c1cccc(Cl)c1 (stereo not given)	89.1%
CN(C)CCNC(=O)c1ccc(-c2cn3c(-c4ccc(Oc5ccccc5)cc4)cnc3cn2)cc1	66.8%
CCOc1ccccc1CNC(=O)C1CCN(c2nnc(C)c3c(C)n(-c4ccc(C)cc4)nc23)CC1	99.6%
CCOc1ccc2nc(N(CCCN(C)C)C(=O)c3ccc(S(=O)(=O)N4CCc5ccccc5C4)cc3)sc2c1	100%
O=C1Nc2ccc(Br)cc2/C1=C/C(=O)c1ccccc1	39.4% (inactive)
O=C1C=CC(=O)N1N(c1ccccc1)c1ccccc1	45.4% (inactive)
CC1=C(C)CS(=O)N(S(=O)(=O)c2ccc(Cl)cc2)C1 (stereo not given)	99.5%
COC(=O)[C@]12CCCCC=C1N(Cc1cccc3ccccc13)C(=O)[C@H](CC(=O)NCc1ccc(OC)c(OC)c1)C2	15.9% (inactive)
CCCCn1c(=N)n(CC(=O)c2ccc(Br)s2)c2ccccc21	100%

SMILES	inhibition
COc1ccc([N+](=O)[O-])cc1Nc1c2ccccc2nc2ccccc12	20.4% (inactive)
CCCCC[C@@H](C)N1C[C@H](COCc2ccccc2)Oc2cc(N3CC[C@@H](N(C)C)C3)ccc2S1(=O)=O	93.7%
COC(=O)c1c(NC(=O)c2nc3ccccc3s2)sc2c1CC(C)(C)NC2(C)C	81.5%
O=C(Nc1ccc(F)cc1)c1nc(S(=O)(=O)Cc2ccccc2)ncc1Cl	98.8%
CC(=O)Nc1ccc2c(=O)n(-c3ccccc3)sc2c1	39.8% (inactive)
CC(C)(c1ccccc1)c1ccc(OCC(O)CNC2CCN(Cc3ccccc3)CC2)cc1 (stereo not given)	97.6%
Cc1ccc(-n2nnc3c(=O)oc4ccccc4c32)cc1	98.8%
CCCCC[C@@H](C)N1C[C@@H](COCc2ccccc2)Oc2cc(N3CC[C@H](N(C)C)C3)ccc2S1(=O)=O	95.1%
CCOc1ccc2[nH]c3c(N4CCc5ccccc5C4)ncnc3c2c1	5.2% (inactive)
CCc1ccc2nc(N(CCCN(C)C)C(=O)c3ccc(S(=O)(=O)N4CCc5ccccc5C4)cc3)sc2c1	97.7%
O=C(Cn1sc2ccccc2c1=O)Nc1ccc(F)cc1	51.7%
CCc1ccc(/C=C2/Sc3ccccc3N(CC(=O)NCCCN3CCOCC3)C2=O)cc1	36.6% (inactive)
N#Cc1ccc(NC(=O)Nc2ccc(Oc3ccc(NC(=O)Nc4ccc(C#N)cc4)cc3)cc2)cc1	40.4% (inactive)
CCCCC[C@@H](C)N1C[C@@H](COCc2ccccc2)Oc2cc(N3CC[C@@H](N(C)C)C3)ccc2S1(=O)=O	95.3%
COc1ccccc1CNc1nc(NCc2ccc3occc3c2)c2sccc2n1	37.5% (inactive)
CCCNC(=O)Cn1sc2nc(C)cc(C)c2c1=O	41.7% (inactive)
Cn1sc(=O)c2cc(S(=O)(=O)NC3CC3)ccc21	73.2%
CCOC(=O)c1nnc(-c2ccccc2)nc1Sc1ccccc1Cl	4.8% (inactive)
COC(=O)c1c(NC(=O)c2ccc(C(=O)c3ccccc3)cc2)sc2c1CC(C)(C)NC2(C)C	39.6% (inactive)
Cc1cc(N2CCN(c3nc(-c4ccc([N+](=O)[O-])cc4)cs3)CC2)c2ccccc2n1	99.2%
COc1ccc(-c2cc(NC=O)c3ncc(-c4cccc(OC)c4)n3c2)cc1	82.8%
O=C(OCc1ccccc1)N(CCCCN(CCCNCc1ccccc1)C(=O)OCc1ccccc1)CCCNCc1ccccc1	99.5%
COc1cccc(NC(=O)Nc2nc(-c3ccc(OC)c(OC)c3)cs2)c1	99.6%
COc1ccccc1CNc1nc(NCc2ccc(C(C)C)cc2)c2sccc2n1	78.5%
O=c1c2ccc(F)cc2sn1-c1ccccc1	77.6%
